Source: publication PMC11696576, “Next generation thiazolyl ketone inhibitors of cytosolic phospholipase A2 α for targeted cancer therapy” (Nature Communications, 2025)
Values joined by “and” are separate entries in the source; they are usually repeats but may differ in a detail not shown here. Identical values can stand only once. Like-named read-outs stand apart in the source and are kept apart here.

Experiments:
Jurkat E6.1 cells = experiment: cell death, PI exclusion and flow cytometry, time course (Figure S9b); type: cell-based, human; set-up: unit not given here; conditions: replicates, listed as AVX420
CCRF-CEM cells = experiment: cell viability, CTG assay, CCRF-CEM; conditions: for cell viability (0 µM = 100): listed as AVX420; for cell viability (Control = 100): VEH
Experimental: Data are the mean ± stdev of 3 biological replicates. c Viability of healthy T-cells measured by propidium iodide (PI) exclusion. Data are the mean ± stdev of 8 biological replicates for 1–16 µM AVX420, 5 for 32 µM AVX420 and 2 for 0.5 µM Staurosporine (Stau). d Cell viability measured by CTG assay in cells preincubated with 2.5 mM glutathione (GSH) or 2.5 mM N-acetyl cysteine (NAC) for 30 min before addition of 0.5 or 1 µM AVX420, 0.06 µM RSL-3, or 0.06 µM ML-210 for 24 h. Data are the mean ± stdev of 3 biological replicates. P-values were determined by one-way ANOVA with Dunnett’s correction for multiple testing and **** indicates P < 0.0001. e Cell viability measured by CTG assay. CCRF-CEM or Jurkat cells were co-treated with 0.5 µM AVX420 and either arachidonic acid (AA) at concentrations ranging from 1 to 100 µM or a mixture of 9 eicosanoids: 6-keto prostaglandin F1α, Thromboxane B2, prostaglandin F2α, prostaglandin E2, prostaglandin D2, 12(S)-HHTrE, 15(S)-HETE,12(S)-HETE, 5(S)-HETE at a final concentration of 2 ng/mL each (EIC-mix) for 24 h. Data are the mean ± stdev of 3 biological replicates. P-values were determined by two-way ANOVA with Sidak’s correction for multiple comparisons. f Proportion of intracellular ROS-positive cells measured by ROS-red staining and flow cytometry. Cells were treated with indicated concentrations of AVX420 (µM), 1 mM H2O2, 1 µM RSL-3, or 1 µM doxorubicin (dox) for 4 h. Data are the mean ± stdev of 3 biological replicates. g Intracellular ROS measurements in CCRF-CEM cells treated with AVX420 (0.5 µM), AVX002 (8 µM), or AACOCF3 (8 µM) for 4 h.
All cell lines were confirmed to be free of mycoplasma contamination. The cell lines were not authenticated. MV-4-11 were cultured in Iscove’s Modified Dulbecco’s Medium (Sigma, I3390). CCRF-CEM, Jurkat E6.1, and HL-60 cells were cultured in RPMI 1640 Medium RPMI-1640 medium (Sigma, R5886).

Structure (SMILES): CCCCCCCOc1ccc(OCC(=O)c2nc(C(=O)OC)cs2)cc1 [GK420]
- PI Negative (Figure S9b) (Jurkat E6.1 cells; 1h): 92 and 90
- PI Positive (Figure S9b) (Jurkat E6.1 cells; 1h): 8 and 10
- PI Negative (Figure S9b) (Jurkat E6.1 cells; 2h): 88 and 92
- PI Positive (Figure S9b) (Jurkat E6.1 cells; 2h): 12 and 8
- PI Negative (Figure S9b) (Jurkat E6.1 cells; 4h): 94 and 93 and 92
- PI Positive (Figure S9b) (Jurkat E6.1 cells; 4h): 6 and 7 and 8
- PI Negative (Figure S9b) (Jurkat E6.1 cells; 8h): 91 (2×) and 87 and 88
- PI Positive (Figure S9b) (Jurkat E6.1 cells; 8h): 9 (2×) and 13 and 12
- PI Negative (Figure S9b) (Jurkat E6.1 cells; 12h): 80 and 83 and 82
- PI Positive (Figure S9b) (Jurkat E6.1 cells; 12h): 20 and 17 and 18
- PI Negative (Figure S9b) (Jurkat E6.1 cells; 16h): 70 and 75 and 71
- PI Positive (Figure S9b) (Jurkat E6.1 cells; 16h): 30 and 25 and 29
- PI Negative (Figure S9b) (Jurkat E6.1 cells; 24h): 65 and 67 and 73
- PI Positive (Figure S9b) (Jurkat E6.1 cells; 24h): 35 and 33 and 27
- cell viability (0 µM = 100) (CCRF-CEM cells; 0.007 µM, 24H): 100
- cell viability (0 µM = 100) (CCRF-CEM cells; 0.015 µM, 24H): 90
- cell viability (0 µM = 100) (CCRF-CEM cells; 0.015 µM, 72H): 81
- cell viability (0 µM = 100) (CCRF-CEM cells; 0.031 µM, 24H): 99
- cell viability (0 µM = 100) (CCRF-CEM cells; 0.062 µM, 24H): 103
- cell viability (0 µM = 100) (CCRF-CEM cells; 0.062 µM, 48H): 84
- cell viability (0 µM = 100) (CCRF-CEM cells; 0.062 µM, 72H): 70
- cell viability (0 µM = 100) (CCRF-CEM cells; 0.125 µM, 72H): 45 and 46
- cell viability (0 µM = 100) (CCRF-CEM cells; 0.25 µM, 24H): 69 and 65
- cell viability (0 µM = 100) (CCRF-CEM cells; 0.25 µM, 48H): 43
- cell viability (0 µM = 100) (CCRF-CEM cells; 0.25 µM, 72H): 16 and 24
- cell viability (0 µM = 100) (CCRF-CEM cells; 0.5 µM, 24H): 42 and 39
- cell viability (0 µM = 100) (CCRF-CEM cells; 0.5 µM, 48H): 19
- cell viability (0 µM = 100) (CCRF-CEM cells; 0.5 µM, 72H): 5.44 and 10
- cell viability (Control = 100) (CCRF-CEM cells; 0.5 µM, listed as AVX420, 0.5 µM): 56 and 50
- cell viability (0 µM = 100) (CCRF-CEM cells; 1 µM, 24H): 23
- cell viability (0 µM = 100) (CCRF-CEM cells; 1 µM, 48H): 10
- cell viability (0 µM = 100) (CCRF-CEM cells; 1 µM, 72H): 3 and 4.53
- cell viability (Control = 100) (CCRF-CEM cells; 1 µM, listed as AVX420, 1 µM): 38
- cell viability (0 µM = 100) (CCRF-CEM cells; 2 µM, 24H): 11
- cell viability (0 µM = 100) (CCRF-CEM cells; 2 µM, 48H): 3 and 2
- cell viability (0 µM = 100) (CCRF-CEM cells; 2 µM, 72H): 1.13
- cell viability (0 µM = 100) (CCRF-CEM cells; 4 µM, 72H): 0.147
- effect on viability (CCRF-CEM cells; CTG): strong dose-dependent effect
- viability at 0.007 µM (CCRF-CEM cells; Homo sapiens, 24 h, read-out: cell viability (0 µM = 100), CCRF-CEM, 0.007 µM, 24H): 98%
- viability at 0.015 µM (CCRF-CEM cells; Homo sapiens, 24 h, read-out: cell viability (0 µM = 100), CCRF-CEM, 0.015 µM, 24H): 98%
- viability at 0.031 µM (CCRF-CEM cells; Homo sapiens, 24 h, read-out: cell viability (0 µM = 100), CCRF-CEM, 0.031 µM, 24H): 98%
- viability at 0.062 µM (CCRF-CEM cells; Homo sapiens, 24 h, read-out: cell viability (0 µM = 100), CCRF-CEM, 0.062 µM, 24H): 98%
- viability at 0.25 µM (CCRF-CEM cells; Homo sapiens, 24 h, read-out: cell viability (0 µM = 100), CCRF-CEM, 0.25 µM, 24H): 68%
- viability at 0.5 µM (CCRF-CEM cells; Homo sapiens, 24 h, read-out: cell viability (0 µM = 100), CCRF-CEM, 0.5 µM, 24H): 49%
- viability at 1 µM (CCRF-CEM cells; Homo sapiens, 24 h, read-out: cell viability (0 µM = 100), CCRF-CEM, 1 µM, 24H): 27%
- viability at 2 µM (CCRF-CEM cells; Homo sapiens, 24 h, read-out: cell viability (0 µM = 100), CCRF-CEM, 2 µM, 24H): 14%
- viability at 0.007 µM (CCRF-CEM cells; Homo sapiens, 48 h, read-out: cell viability (0 µM = 100), CCRF-CEM, 0.007 µM, 48H): 94%
- viability at 0.015 µM (CCRF-CEM cells; Homo sapiens, 48 h, read-out: cell viability (0 µM = 100), CCRF-CEM, 0.015 µM, 48H): 95%
- viability at 0.031 µM (CCRF-CEM cells; Homo sapiens, 48 h, read-out: cell viability (0 µM = 100), CCRF-CEM, 0.031 µM, 48H): 87%
- viability at 0.062 µM (CCRF-CEM cells; Homo sapiens, 48 h, read-out: cell viability (0 µM = 100), CCRF-CEM, 0.062 µM, 48H): 85%
- viability at 0.125 µM (CCRF-CEM cells; Homo sapiens, 48 h, read-out: cell viability (0 µM = 100), CCRF-CEM, 0.125 µM, 48H): 67%
- viability at 0.25 µM (CCRF-CEM cells; Homo sapiens, 48 h, read-out: cell viability (0 µM = 100), CCRF-CEM, 0.25 µM, 48H): 41%
- viability at 0.5 µM (CCRF-CEM cells; Homo sapiens, 48 h, read-out: cell viability (0 µM = 100), CCRF-CEM, 0.5 µM, 48H): 17%
- viability at 1 µM (CCRF-CEM cells; Homo sapiens, 48 h, read-out: cell viability (0 µM = 100), CCRF-CEM, 1 µM, 48H): 9%
- viability at 2 µM (CCRF-CEM cells; Homo sapiens, 48 h, read-out: cell viability (0 µM = 100), CCRF-CEM, 2 µM, 48H): 4%
- viability at 0.007 µM (CCRF-CEM cells; Homo sapiens, 72 h, read-out: cell viability (0 µM = 100), CCRF-CEM, 0.007 µM, 72H): 82%
- viability at 0.015 µM (CCRF-CEM cells; Homo sapiens, 72 h, read-out: cell viability (0 µM = 100), CCRF-CEM, 0.015 µM, 72H): 78%
- viability at 0.031 µM (CCRF-CEM cells; Homo sapiens, 72 h, read-out: cell viability (0 µM = 100), CCRF-CEM, 0.031 µM, 72H): 76%
- viability at 0.062 µM (CCRF-CEM cells; Homo sapiens, 72 h, read-out: cell viability (0 µM = 100), CCRF-CEM, 0.062 µM, 72H): 67%
- viability at 0.125 µM (CCRF-CEM cells; Homo sapiens, 72 h, read-out: cell viability (0 µM = 100), CCRF-CEM, 0.125 µM, 72H): 40%
- viability at 0.25 µM (CCRF-CEM cells; Homo sapiens, 72 h, read-out: cell viability (0 µM = 100), CCRF-CEM, 0.25 µM, 72H): 21%
- viability at 0.5 µM (CCRF-CEM cells; Homo sapiens, 72 h, read-out: cell viability (0 µM = 100), CCRF-CEM, 0.5 µM, 72H): 7%
- viability at 1 µM (CCRF-CEM cells; Homo sapiens, 72 h, read-out: cell viability (0 µM = 100), CCRF-CEM, 1 µM, 72H): 3.38%
- viability at 2 µM (CCRF-CEM cells; Homo sapiens, 72 h, read-out: cell viability (0 µM = 100), CCRF-CEM, 2 µM, 72H): 1%
- viability at 4 µM (CCRF-CEM cells; Homo sapiens, 72 h, read-out: cell viability (0 µM = 100), CCRF-CEM, 4 µM, 72H): 0.214%
- viability at 0.5 µM (CCRF-CEM cells; Homo sapiens, read-out: cell viability (Control = 100), CCRF-CEM, 0.5 µM, VEH): 52%
- viability at 1 µM (CCRF-CEM cells; Homo sapiens, read-out: cell viability (Control = 100), CCRF-CEM, 1 µM, VEH): 37%
